From patent US20150183737A1, “COMPOSITIONS AND METHODS FOR SUBSTRATE-SELECTIVE INHIBITION OF ENDOCANNABINOID OXYGENATION” (Vanderbilt University, priority 2012, published 2015)

Key:
[1] = molecular target: T1, purified murine COX-2 (Mus musculus, UniProt Q05769); conditions: chiral profens; at 10 μM inhibitor; data taken from reference 10; cited from earlier work
T1 sequence (Q05769 18-604): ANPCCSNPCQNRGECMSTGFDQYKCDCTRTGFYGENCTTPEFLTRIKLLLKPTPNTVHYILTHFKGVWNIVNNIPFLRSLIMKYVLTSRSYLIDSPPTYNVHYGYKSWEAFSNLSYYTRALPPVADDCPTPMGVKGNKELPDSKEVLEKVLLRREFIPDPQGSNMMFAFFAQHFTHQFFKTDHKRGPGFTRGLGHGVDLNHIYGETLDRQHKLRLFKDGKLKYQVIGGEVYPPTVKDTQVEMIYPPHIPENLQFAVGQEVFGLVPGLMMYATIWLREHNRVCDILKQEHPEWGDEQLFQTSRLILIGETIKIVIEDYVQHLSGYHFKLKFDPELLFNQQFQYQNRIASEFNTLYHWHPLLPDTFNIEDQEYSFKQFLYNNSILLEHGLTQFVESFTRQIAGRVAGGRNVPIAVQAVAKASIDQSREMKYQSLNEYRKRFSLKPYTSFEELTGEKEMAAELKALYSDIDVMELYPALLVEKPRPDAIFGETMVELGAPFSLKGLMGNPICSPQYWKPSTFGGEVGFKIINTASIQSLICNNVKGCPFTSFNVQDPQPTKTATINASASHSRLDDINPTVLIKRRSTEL

[2] = molecular target: COX-2 in dorsal root ganglion cells (DRGs) (Mus musculus, UniProt Q05769)
Experimental: Treatment with inflammatory stimuli was performed as described herein below.
DRGs were harvested from E14 mouse embryos and plated onto collagen-coated dishes. After being cultured for 3-5 days, they were treated overnight with granulocyte-macrophage colony-stimulating factor followed by lipopolysaccharide, interferon γ, and 10 μM 15(S)-hydroxy-5,8,11,13-eicosatetraenoic acid for 6 hours.
DRGs, activated as above for 3 hours were treated with ionomycin for an additional 3 hours to stimulate substrate release.
The amounts of prostaglandin, PG-G, and PG-EA were quantified using stable-isotope dilution methods with labeled internal standards.

SMILES: COc1ccc2cc([C@@H](C)C(=O)O)ccc2c1 [Compound 7b, (R)-naproxen]
- % Inhibition AA [1]: 0%
- Synthesis of prostaglandins in DRGs ([2]; at concentrations that inhibited PG-G and PG-EA synthesis): did not inhibit
- Amounts of AEA and 2-AG in cell extracts ([2]; stimulated DRGs): increased
